{
  "source": "patent US9353188B2",
  "about": "“Modulators of Plexin B2 activity” (President and Fellows of Harvard College, priority 2011, dated 2016)",
  "molecules": {"B1": {"name": "RNase A: protein with 35% amino acid identity to ANG, used on Sepharose column to remove non-specific proteins (protein, UniProt P61823 27-150, looked up)", "Ribonuclease pancreatic": "KETAAAKFERQHMDSSTSAASSSNYCNQMMKSRNLTKDRCKPVNTFVHESLADVQAVCSQKNVACKNGQTNCYQSYSTMSITDCRETGSSKYPNCAYKTTQANKHIIVACEGNPYVPVHFDASV"}},
  "key": {"LNCaP cells": {"system": "LNCaP cells", "assay": "LNCaP cell proliferation in phenol red-free and steroid-free medium", "type": "cell-based, human", "details": "for LNCaP cell proliferation: steroid-free medium, DHT 10 nM, ANG 0.1 μg/ml, or a mixture of the two", "description": "(A) HUVE and LNCaP cells were cultured at the density indicated, and incubated with 0.1 μg/ml ANG for 2 h. Nuclear ANG were detected by indirect immunofluorescence with 26-2F and Alex 488 labeled 2nd antibody. (B) LNCaP cells were culture in phenol red-free and charcoal/dextran-stripped (steroid-free) FBS for 2 day and stimulated with DHT (10 nM), ANG (0.1 μg/ml), or a mixture of the two for the time indicated. (C) Dose dependence. ANG was added to the cells and cultured for 4 days. Cell numbers were determined with a Coulter counter.\nANG plays a dual role in prostate cancer progression. It not only mediates tumor angiogenesis but also directly stimulates cancer cell proliferation."}, "[1]": {"system": "ANG receptor expressing LNCaP cells", "assay": "radio receptor assay, binding of 125I-ANG to LNCaP cells", "parameters": "species or system human", "details": "4° C., Scatchard analysis", "description": "(A) Subconfluent LNCaP cells were incubated with ^125I-ANG at 4° C. for 30 min and bound ANG was determined by a gamma counter. (B) Scatchard plot of the results produced in experiment described in (A).\nThe thermodynamics of ANG binding to LNCaP cells was determined by a standard radio receptor assay. ANG was labeled with iodine-125 and incubated with ANG receptor expressing LNCaP cells at 4° C."}, "[2]": {"system": "Plexin B2 transfectants of COS-7 cells", "assay": "AKT phosphorylation in Plexin B2 transfectants of COS-7 cells (Western)", "type": "cell-based, monkey", "details": "not in vector control, ANG 2 h", "description": "Vector (A-C) and Plexin B2 (D-F) transfected COS-7 cells were incubated with 1 μg/ml ANG for 2 h. ANG was detected by immunofluorescence (A and D). Nuclei were stained by DAPI (B and E). The merged images were shown in C and F. (G) Vector and Plexin B2 transfectants were incubated with ANG at the concentration indicated for 2 h. Cells were lysed, cell lysates (60 μg protein) were subjected for SDS-PAGE and Western analysis for phospho-AKT and total AKT with respective antibodies.\nThe phosphorylation status of AKT in the Plexin B2 transfectants of COS-7 cells was examined."}, "ANG protein": {"target": "ANG protein (Homo sapiens, UniProt P03950)", "sequence (P03950 25-147)": "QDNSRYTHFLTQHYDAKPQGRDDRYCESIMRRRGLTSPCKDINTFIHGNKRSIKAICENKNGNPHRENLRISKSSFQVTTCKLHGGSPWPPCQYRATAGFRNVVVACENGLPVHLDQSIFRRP", "assay": "binding of Plexin B2 peptides to ANG by ELISA and equilibrium dialysis"}, "[3]": {"system": "Plexin B2 transfectants of COS-7 cells", "assay": "nuclear translocation of ANG in Plexin B2-transfected COS-7 cells", "type": "cell-based, monkey", "details": "neomycin 10 min, then 1 μg/ml ANG for 2 h", "description": "The Plexin B2 transfectants were treated with neomycin at the concentration indicated for 10 min and then incubated with 1 μg/ml ANG for 2 h. ANG was detected by immunofluorescence (top panels). Nuclei were stained by DAPI (middle panels). The merged images were shown in bottom panels.\nThe effect of neomycin on Plexin B2 transfectants of COS-7 cells was examined. […] Therefore, transfection of human Plexin B2 cDNA converted COS-7 cells into ANG responsive cells. In term of nuclear translocation of ANG, which is essential for the biological activity of ANG, Plexin B2 transfectants of COS-7 cells act in a similar fashion as do LNCaP cells and sparsely cultured HUVE cells, the two known ANG responsive cell lines."}, "[4]": {"system": "ANG receptor expressing LNCaP cells", "details": "background statement, no data shown; cited from earlier work"}},
  "note": "Like-named read-outs stand apart in the source and are kept apart here. Residues, ends and D or L forms follow the SMILES beside them.",
  "data": [
    {"molecule": "C[C@]12CCC(=O)C[C@@H]1CC[C@@H]1[C@@H]2CC[C@]2(C)[C@@H](O)CC[C@@H]12", "note": "[DHT, Dihydrotestosterone, reference compound]", "values": [
      {"measurement": "LNCaP cell proliferation", "setting": "LNCaP cells", "value": "stimulated LNCaP cell proliferation"}
    ]},
    {"molecule": "ANG: small, secreted protein Angiogenin, a potent inducer of angiogenesis; human ANG is SEQ ID NO: 5", "values": [
      {"measurement": "Kd", "setting": "[1]; read-out: apparent Kd, first ANG binding site", "value": 0.45, "unit": "nM"},
      {"measurement": "Kd", "setting": "[1]; read-out: apparent Kd, second ANG binding site", "value": 170, "unit": "nM"},
      {"measurement": "LNCaP cell proliferation, dose dependence", "setting": "LNCaP cells; cultured for 4 days, cell numbers by Coulter counter", "value": "stimulated LNCaP cell proliferation in a dose-dependent manner"},
      {"measurement": "LNCaP cell proliferation", "setting": "LNCaP cells", "value": "stimulated LNCaP cell proliferation in the absence of androgen"},
      {"measurement": "AKT phosphorylation", "setting": "[2]", "value": "induced AKT phosphorylation"}
    ]},
    {"molecule": "RDGLRGTAVLQRGGLNL (listed as Homo sapiens) [SEQ ID NO: 3]", "values": [
      {"measurement": "binding to ANG", "setting": "ANG protein", "value": "able to bind to ANG"}
    ]},
    {"molecule": "LDKVHAKMEANRNAC (listed as Homo sapiens) [SEQ ID NO: 2]", "values": [
      {"measurement": "binding to ANG", "setting": "ANG protein", "value": "able to bind to ANG"}
    ]},
    {"molecule": "CC[C@H](C)[C@H](NC(=O)[C@H](CCC(=O)O)NC(=O)[C@@H](NC(=O)[C@H](CC(C)C)NC(=O)[C@@H](NC(=O)[C@H](CO)NC(=O)[C@H](CC(=O)O)NC(=O)[C@H](Cc1ccc(O)cc1)NC(=O)[C@H](CCC(=O)O)NC(=O)[C@H](CO)NC(=O)[C@H](CO)NC(=O)[C@@H](NC(=O)CN)[C@@H](C)O)[C@@H](C)CC)C(C)C)C(=O)N[C@@H](CC(N)=O)C(=O)N[C@@H](CCCCN)C(=O)N[C@@H](CCCNC(=N)N)C(=O)N[C@H](C(=O)N[C@@H](CCCCN)C(=O)O)C(C)C", "note": "[SEQ ID NO: 1, GTSSEYDSILVEINKRVK] (H-GTSSEYDSILVEINKRVK-OH; N-terminus and C-terminus assumed)", "values": [
      {"measurement": "binding to ANG", "setting": "ANG protein", "value": "able to bind to ANG"}
    ]},
    {"molecule": "neomycin", "values": [
      {"measurement": "nuclear translocation of ANG", "setting": "[3]", "value": "inhibits nuclear translocation of ANG in the Plexin B2 transfectants of COS-7 cells in a dose-dependent manner"}
    ]},
    {"molecule": "B1", "values": [
      {"measurement": "binding to the LNCaP cell surface", "setting": "[4]", "value": "does not bind to the LNCaP cell surface"}
    ]}
  ]
}
